Key:
[1] = test system: OPM-2 human multiple myeloma cell line; assay: Cell Viability Assay (OPM-2 10 FBS); type: cell-based; conditions: OPM-2 cells, CellTiter-Glo
In short: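 IC50 from 4-parameter logistic fit of CellTiter-Glo luminescence. 3000 cells/well, 10% FBS medium, serial compound dilutions, 16 h, 37 °C/5% CO2; read 25 min post-reagent.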

[2] = target: T1, Mcl-1/Bim interaction, recombinant human Mcl-1 (171-327) (Homo sapiens, UniProt Q07820); assay: Cell free Mcl-1: Bim Affinity Assay (Mcl-1 HTRF); type: binding
T1 construct: made in house
T1 sequence (Q07820 171-327): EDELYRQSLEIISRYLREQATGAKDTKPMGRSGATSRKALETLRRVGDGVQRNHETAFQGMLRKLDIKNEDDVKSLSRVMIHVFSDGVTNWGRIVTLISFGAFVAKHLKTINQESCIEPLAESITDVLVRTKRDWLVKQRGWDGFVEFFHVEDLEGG
In short: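 Compounds were mixed with the protein and a biotinylated Bim peptide spanning human residues 51-76. Plates were left overnight, then TR-FRET signal was measured. A four-parameter sigmoidal model applied to duplicate competition data gave IC50.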

[3] = Homo sapiens, OPM-2, 16 h, 16 h
[4] = cell free Mcl-1:Bim TR-FRET, recombinant human Mcl-1 (171-327)
[5] = Homo sapiens, OPM-2, 16 h, 16 h incubation
[6] = TR-FRET, 0.1 nM Mcl-1 (171-327), 0.05 nM biotin-Bim (51-76)

| SMILES | IC50 [1, 3] [nM] | IC50 [2, 4] [nM] | IC50 [1, 5] [nM] | IC50 [2, 6] [nM] | IC50 ([1]; 16 h) [nM] |
| --- | --- | --- | --- | --- | --- |
| O=C1NS(=O)(=O)CCOC2CCOC(C2)C2CCC2CN2CC3(CCCc4cc(Cl)ccc43)COc3ccc1cc32 (single isomer, unassigned) [Example 878] | 7000 | 9.46 |  |  |  |
| C[C@@H]1CC/C=C/[C@H](OCc2nc[nH]n2)[C@@H]2CC[C@H]2CN2C[C@@]3(CCCc4cc(Cl)ccc43)COc3ccc(cc32)C(=O)NS1(=O)=O [Example 958, (1S,3′R,6′R,7′S,8′E,12′R)-6-chloro-12′-methyl-7′-(4H-1,2,4-triazol-3-ylmethoxy)-3,4-dihydro-2H,15′H-spiro[naphthalene-1,22′-[20]oxa[13]thia[1,14]diazatetracyclo[14.7.2.0^3,6.0^19,24]pentacosa [8,16,18,24]tetraen]-15′-one 13′,13′-dioxide] |  |  | 3890 | 0.253 |  |
| C[C@@H]1[C@@H](C)C/C=C/[C@H](OCCCN2CCOCC2)[C@@H]2CC[C@H]2CN2C[C@@]3(CCCc4cc(Cl)ccc43)COc3ccc(cc32)C(=O)NS1(=O)=O [Example 721, (1S,3′R,6′R,7′S,8′E,11′S,12′R)-6-chloro-11′,12′-dimethyl-7′-(3-(4-morpholinyl)propoxy)-3,4-dihydro-2H,15′H-spiro[naphthalene-1,22′-[20]oxa[13]thia[1,14]diazatetracyclo[14.7.2.0^3,6.0^19,24]pentacosa [8,16,18,24]tetraen]-15′-one-13′, 13′-dioxide] | 73.5 | 0.539 |  |  |  |
| C[C@@H]1[C@@H](C)C/C=C/[C@H](OC[C@@H](C)O)[C@@H]2CC[C@H]2CN2C[C@@]3(CCCc4cc(Cl)ccc43)COc3ccc(cc32)C(=O)NS1(=O)=O (single isomer, unassigned) [Example 527] |  | 0.217 |  |  | 64.7 |
| C[C@@H]1[C@@H](C)C/C=C/[C@H](OCC(=O)N2CCN(C)CC2)[C@@H]2CC[C@H]2CN2C[C@@]3(CCCc4cc(Cl)ccc43)COc3ccc(cc32)C(=O)NS1(=O)=O [Example 316, (1S,3′R,6′R,7′S,8′E,11′S,12′R)-6-chloro-11′,12′-dimethyl-7′-(2-(4-methyl-1-piperazinyl)-2-oxoethoxy)-3,4-dihydro-2H,15′H-spiro[naphthalene-1,22′-[20]oxa[13]thia[1,14]diazatetracyclo[14.7.2.0^3,6.0^19,24]pentacosa [8,16,18,24]tetraen]-15′-one 13′,13′-dioxide] | 162 |  |  | 0.0986 |  |
| C[C@@H]1CC/C=C/[C@H](OC[C@H](O)CO)[C@@H]2CC[C@H]2CN2C[C@@]3(CCCc4cc(Cl)ccc43)COc3ccc(cc32)C(=O)NS1(=O)=O (mixture of isomers) [Example 415] | 2640 |  |  | 0.276 |  |
| COCC[C@@H]1C[C@@H](C)/C=C/[C@H](O)[C@@H]2CC[C@H]2CN2C[C@@]3(CCCc4cc(Cl)ccc43)COc3ccc(cc32)C(=O)NS1(=O)=O (single isomer, unassigned) [Example 477] |  | 0.311 |  |  | 286 |
| O=C1NS(=O)(=O)[C@@H]2CCC[C@H]2C/C=C/[C@H](O)[C@@H]2CC[C@H]2CN2C[C@@]3(CCCc4cc(Cl)ccc43)COc3ccc1cc32 (single isomer, unassigned) [Example 325] |  |  |  | 0.297 | 208 |
| CC(C)OC(=O)CC1C(C)CC=CC(O)C2CCC2CN2CC3(CCCc4cc(Cl)ccc43)COc3ccc(cc32)C(=O)NS1(=O)=O (single isomer, unassigned) [Example 566] |  | 0.384 |  |  | 282 |
| Cc1nc(CN(Cc2noc(C)n2)[C@H]2/C=C/CC[C@@H](C)S(=O)(=O)NC(=O)c3ccc4c(c3)N(C[C@@H]3CC[C@H]32)C[C@@]2(CCCc3cc(Cl)ccc32)CO4)no1 [Example 602, (1S,3′R,6′R,7′S,8′E,12′R)-7′-(bis((5-methyl-1,2,4-oxadiazol-3-yl)methyl)amino)-6-chloro-12′-methyl-3,4-dihydro-2H,15′H-spiro[naphthalene-1,22′-[20]oxa[13]thia[1,14]diazatetracyclo[14.7.2.0^3,6.0^19,24]pentacosa [8,16,18,24]tetraen]-15′-one 13′,13′-dioxide] | 727 | 1.74 |  |  |  |
| C[C@@H]1[C@@H](C)C/C=C/[C@H](OCCN2CCOC[C@@H]2C)[C@@H]2CC[C@H]2CN2C[C@@]3(CCCc4cc(Cl)ccc43)COc3ccc(cc32)C(=O)NS1(=O)=O [Example 534, (1S,3′R,6′R,7′S,8′E,11′S,12′R)-6-chloro-11′,12′-dimethyl-7′-(2-((3S)-3-methyl-4-morpholinyl)ethoxy)-3,4-dihydro-2H,15′H-spiro[naphthalene-1,22′-[20]oxa[13]thia[1,14]diazatetracyclo[14.7.2.0^3,6.0^19,24]pentacosa [8,16,18,24]tetraen]-15′-one 13′,13′-dioxide] | 99.3 | 0.788 |  |  |  |
| CO[C@H]1/C=C/[C@@H](CO)C[C@H](C)S(=O)(=O)NC(=O)c2ccc3c(c2)N(C[C@@H]2CC[C@H]21)C[C@@]1(CCCc2cc(Cl)ccc21)CO3 (single isomer, unassigned) [Example 127] |  |  |  | 0.341 | 1850 |
| CC[C@@H]1CC/C=C/[C@H](OCc2cc(C)nn2C)[C@@H]2CC[C@H]2CN2C[C@@]3(CCCc4cc(Cl)ccc43)COc3ccc(cc32)C(=O)NS1(=O)=O [Example 967, (1S,3′R,6′R,7′S,8′E,12′R)-6-chloro-7′-((1,3-dimethyl-1H-pyrazol-5-yl)methoxy)-12′-ethyl-3,4-dihydro-2H,15′H-spiro[naphthalene-1,22′-[20]oxa[13]thia[1,14]diazatetracyclo[14.7.2.0^3,6.0^19,24]pentacosa [8,16,18,24]tetraen]-15′-one 13′,13′-dioxide] |  |  | 461 | 1.06 |  |
| CO[C@H](C)C[C@@H]1[C@@H](C)C/C=C/[C@H](OC)[C@@H]2CC[C@H]2CN2C[C@@]3(CCCc4cc(Cl)ccc43)COc3ccc(cc32)C(=O)NS1(=O)=O (single isomer, unassigned) [Example 535] | 162 | 0.389 |  |  |  |
| C[C@H]1C/C=C/[C@H](O)[C@@H]2CC[C@H]2CN2C[C@@]3(CCCc4cc(Cl)ccc43)COc3ccc(cc32)C(=O)NS(=O)(=O)N1C[C@H]1CCCO1 (single isomer, unassigned) [Example 53] | 486 |  |  | 0.79 |  |
| O=C1NS(=O)(=O)[C@@H]2CCC[C@H](/C=C/[C@H](O)[C@@H]3CC[C@H]3CN3C[C@@]4(CCCc5cc(Cl)ccc54)COc4ccc1cc43)C2 (single isomer, unassigned) [Example 109] |  |  |  | 1.34 | 12200 |
| CCC1CCC=CC(OC2CCOC2=O)C2CCC2CN2CC3(CCCc4cc(Cl)ccc43)COc3ccc(cc32)C(=O)NS1(=O)=O (single isomer, unassigned) [Example 424] | 248 |  |  | 0.501 |  |
| CC[N+](CC)(CC)CCO[C@H]1/C=C/C[C@H](C)[C@@H](C)S(=O)(=O)NC(=O)c2ccc3c(c2)N(C[C@@H]2CC[C@H]21)C[C@@]1(CCCc2cc(Cl)ccc21)CO3 [Example 533, 2-(((1S,3′R,6′R,7′S,8′E,11′S,12′R)-6-chloro-11′,12′-dimethyl-13′,13′-dioxido-15′-oxo-3,4-dihydro-2H-spiro[naphthalene-1,22′-[20]oxa[13]thia[1,14]diazatetracyclo[14.7.2.0^3,6.0^19,24]pentacosa [8,16,18,24]tetraen]-7′-yl)oxy)-N,N,N-triethylethanaminium 2,2,2-trifluoroacetate] | 14200 | 0.583 |  |  |  |
| COC[C@H]1[C@@H](C)C/C=C/[C@H](OC)[C@@H]2CC[C@H]2CN2C[C@@]3(CCCc4cc(Cl)ccc43)COc3ccc(cc32)C(=O)NS1(=O)=O (single isomer, unassigned) [Example 461] |  |  |  | 1.79 | 775 |
| O=C1NS(=O)(=O)[C@@H]2CCC[C@@H](CC[C@H](O)[C@@H]3CC[C@H]3CN3C[C@@]4(CCCc5cc(Cl)ccc54)COc4ccc1cc43)C2 (single isomer, unassigned) [Example 107] |  |  |  | 0.597 | 17300 |
| COCC[C@@H]1C[C@H](C)/C=C/[C@H](O)[C@@H]2CC[C@H]2CN2C[C@@]3(CCCc4cc(Cl)ccc43)COc3ccc(cc32)C(=O)NS1(=O)=O (single isomer, unassigned) [Example 478] |  | 0.197 |  |  | 468 |
| C[C@@H]1C/C=C/[C@H](O)[C@@H]2CC[C@H]2CN2C[C@@]3(CCCc4cc(Cl)ccc43)COc3ccc(cc32)C(=O)NS(=O)(=O)N1C[C@H]1CCCO1 [Example 55, (1S,3′R,6′R,7′S,8′E,11R)-6-chloro-7′-hydroxy-11′-methyl-12′-((2R)-tetrahydro-2-furanylmethyl)-3,4-dihydro-2H,15′H-spiro[naphthalene-1,22′-[20]oxa[13]thia[1,12,14]triazatetracyclo[14.7.2.0^3,6.0^19,24]pentacosa[8,16,18,24]tetraen]-15′-one 13′,13′-dioxide] | 2380 |  |  | 6.25 |  |
| COc1ccc(CNCCO[C@H]2/C=C/C[C@H](C)[C@@H](C)S(=O)(=O)NC(=O)c3ccc4c(c3)N(C[C@@H]3CC[C@H]32)C[C@@]2(CCCc3cc(Cl)ccc32)CO4)c(OC)c1 [Example 777, (1S,3′R,6′R,7′S,8′E,11′S,12′R)-6-chloro-7′-(2-((2,4-dimethoxybenzyl)amino)ethoxy)-11′,12′-dimethyl-3,4-dihydro-2H,15′H-spiro[naphthalene-1,22′-[20]oxa[13]thia[1,14]diazatetracyclo[14.7.2.0^3,6.0^19,24]pentacosa[8,16,18,24]tetraen]-15′-one-13′, 13′-dioxide] | 912 | 13.8 |  |  |  |

Source: patent US12091425B2 (AMGEN INC., priority 2016, dated 2024)
